Test results taken from patent US20090131481A1, “Transcription Factor Modulating Compounds and Methods of Use Thereof” (Paratek Pharmaceuticals, Inc., published 2009).

Tests used:
[1] = target: LcrF (VirF) (Yersinia pestis, UniProt P28808); assay: biochemical; format: binding, Y. pseudotuberculosis; settings: EC50 for inhibition of LcrF(VirF)-DNA binding
[2] = target: T1, ExsA (Pseudomonas aeruginosa, UniProt P26993); assay: Chemiluminescence-based ExsA-DNA binding assay; parameters: species or system P. aeruginosa; settings: Table 7, cell-free system; read-out: ExsA EC50
T1 construct: made in house
T1 sequence (P26993 1-278): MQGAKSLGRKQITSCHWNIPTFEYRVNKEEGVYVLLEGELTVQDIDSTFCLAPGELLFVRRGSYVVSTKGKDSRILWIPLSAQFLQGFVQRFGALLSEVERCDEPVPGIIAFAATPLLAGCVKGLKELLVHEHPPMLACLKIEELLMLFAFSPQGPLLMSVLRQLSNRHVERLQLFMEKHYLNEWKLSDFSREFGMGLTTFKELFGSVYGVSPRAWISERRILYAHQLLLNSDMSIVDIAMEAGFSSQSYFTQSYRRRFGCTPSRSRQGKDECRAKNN

[3] = test system: P. aeruginosa PA103; assay: Lethal P. aeruginosa pneumonia model in mice; format: in vivo; settings: IP 25 mg/kg, 10^6 organisms intranasally, FIG. 5 and 6

Chain of LcrF (VirF) (P28808 whole entry, looked up): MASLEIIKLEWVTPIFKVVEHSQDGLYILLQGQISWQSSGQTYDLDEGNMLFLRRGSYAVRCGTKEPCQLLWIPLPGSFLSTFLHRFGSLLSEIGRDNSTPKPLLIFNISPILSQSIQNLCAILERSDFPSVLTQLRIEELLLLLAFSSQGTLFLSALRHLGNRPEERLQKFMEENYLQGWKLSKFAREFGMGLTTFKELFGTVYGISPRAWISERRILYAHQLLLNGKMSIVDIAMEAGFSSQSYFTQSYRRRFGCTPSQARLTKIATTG

## O=C(Nc1ccc(-c2nc3ccc([N+](=O)[O-])cc3n2O)cc1)c1ccc(-n2ccnc2)cc1 [I]
[1]
  EC50: < 10 µM
[2]
  EC50: 10 to 25 µM
[3]
  survival at 48 hours post infection: 50%
